In one assay the target is T1, human TLR9 (Homo sapiens, UniProt Q9NR96).
T1 construct: host or cells: HEK293 (HEK-Blue hTLR9)
T1 sequence (Q9NR96 26-1032): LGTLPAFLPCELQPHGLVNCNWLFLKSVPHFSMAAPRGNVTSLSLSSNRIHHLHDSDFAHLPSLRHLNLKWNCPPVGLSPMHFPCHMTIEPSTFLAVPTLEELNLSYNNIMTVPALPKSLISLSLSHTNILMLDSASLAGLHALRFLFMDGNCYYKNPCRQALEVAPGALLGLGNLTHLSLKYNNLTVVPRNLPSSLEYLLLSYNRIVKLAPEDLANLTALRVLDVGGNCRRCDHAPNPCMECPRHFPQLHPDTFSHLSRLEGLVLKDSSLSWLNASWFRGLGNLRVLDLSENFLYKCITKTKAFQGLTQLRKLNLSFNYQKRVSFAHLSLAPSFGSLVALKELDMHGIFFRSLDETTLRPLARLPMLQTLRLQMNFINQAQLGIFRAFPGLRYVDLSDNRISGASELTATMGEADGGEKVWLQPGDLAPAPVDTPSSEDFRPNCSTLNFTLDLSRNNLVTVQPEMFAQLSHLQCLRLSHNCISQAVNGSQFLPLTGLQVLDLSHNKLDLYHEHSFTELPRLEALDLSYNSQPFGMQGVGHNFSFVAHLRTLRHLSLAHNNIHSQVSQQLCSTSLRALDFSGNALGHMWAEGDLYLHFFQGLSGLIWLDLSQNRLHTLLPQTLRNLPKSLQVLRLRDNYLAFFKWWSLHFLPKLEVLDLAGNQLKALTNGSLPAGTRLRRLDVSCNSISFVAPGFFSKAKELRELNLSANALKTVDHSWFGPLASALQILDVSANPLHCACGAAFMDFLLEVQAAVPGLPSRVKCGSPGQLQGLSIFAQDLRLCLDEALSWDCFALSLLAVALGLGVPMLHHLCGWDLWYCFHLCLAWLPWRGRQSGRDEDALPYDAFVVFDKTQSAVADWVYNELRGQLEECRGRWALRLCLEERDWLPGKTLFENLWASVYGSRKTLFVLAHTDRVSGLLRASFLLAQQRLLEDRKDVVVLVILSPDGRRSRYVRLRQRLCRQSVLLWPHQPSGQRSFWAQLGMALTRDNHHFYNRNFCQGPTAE
Briefly: HEK293-Blue-hTLR-9 cells assay. Type of assay: cell-based. The conditions noted are these: HEK293-Blue-hTLR9 cells, ODN2006 stimulation, 20 hrs, SEAP reporter; read-out: HEK/hTLR9 IC50.

Another assay addresses T2, human TLR8 (Homo sapiens, UniProt Q9NR97).
T2 sequence (Q9NR97 27-1041): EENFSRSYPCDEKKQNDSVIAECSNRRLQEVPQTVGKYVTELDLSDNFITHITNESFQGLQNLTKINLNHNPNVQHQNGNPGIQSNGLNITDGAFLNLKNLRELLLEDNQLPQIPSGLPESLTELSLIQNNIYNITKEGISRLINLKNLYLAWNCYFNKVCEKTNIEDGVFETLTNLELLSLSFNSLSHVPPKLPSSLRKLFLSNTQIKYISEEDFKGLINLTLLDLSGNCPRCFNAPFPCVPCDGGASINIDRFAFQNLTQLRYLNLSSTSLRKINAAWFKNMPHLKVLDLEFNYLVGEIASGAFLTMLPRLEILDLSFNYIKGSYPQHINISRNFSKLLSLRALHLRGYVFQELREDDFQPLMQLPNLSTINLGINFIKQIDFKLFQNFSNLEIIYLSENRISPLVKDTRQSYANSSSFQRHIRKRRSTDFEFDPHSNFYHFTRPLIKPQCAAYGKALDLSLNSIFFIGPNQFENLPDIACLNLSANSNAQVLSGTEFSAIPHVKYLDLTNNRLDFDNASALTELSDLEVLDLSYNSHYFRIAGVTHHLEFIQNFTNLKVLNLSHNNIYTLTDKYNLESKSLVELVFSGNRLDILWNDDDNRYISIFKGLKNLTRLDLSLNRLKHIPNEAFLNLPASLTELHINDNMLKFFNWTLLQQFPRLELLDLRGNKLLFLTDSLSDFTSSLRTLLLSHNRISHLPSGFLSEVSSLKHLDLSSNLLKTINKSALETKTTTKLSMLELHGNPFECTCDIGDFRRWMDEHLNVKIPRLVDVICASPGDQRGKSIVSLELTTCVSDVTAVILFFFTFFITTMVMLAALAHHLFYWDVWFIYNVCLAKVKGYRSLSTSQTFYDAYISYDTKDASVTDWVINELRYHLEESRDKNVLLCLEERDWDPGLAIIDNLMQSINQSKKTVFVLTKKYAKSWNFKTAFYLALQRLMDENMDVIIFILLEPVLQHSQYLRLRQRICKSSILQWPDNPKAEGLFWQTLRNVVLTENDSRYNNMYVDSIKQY
As to the kind of experiment: HEK293-Blue-hTLR-8 cells assay.

The values below come from US20220340597A1, “HEXAHYDRO-1H-PYRAZINO[1,2-A]PYRAZINE COMPOUNDS FOR THE TREATMENT OF AUTOIMMUNE DISEASE” (Hoffmann-La Roche Inc., priority 2019, published 2022).

As for `C[C@@H]1CN(c2ccc(C#N)c3ncccc23)C[C@@H]2CN(c3ccnc(N4CC(C)(N)C4)c3)CCN21` [Example 56, 5-[(4R,9aS)-8-[2-(3-amino-3-methyl-azetidin-1-yl)-4-pyridyl]-4-methyl-3,4,6,7,9,9a-hexahydro-1H-pyrazino[1,2-a]pyrazin-2-yl]quinoline-8-carbonitrile], the IC50 was below 32 nM at human TLR9 and 8 nM against human TLR8.
For `C[C@@H]1CN(c2ccc(C#N)c3ncccc23)C[C@@H]2CN(CCc3ccc(N4CC5(CNCCO5)C4)cc3)CCN21` [Example 28, 5-[(4R,9aS)-4-methyl-8-[2-[4-(5-oxa-2,8-diazaspiro[3.5]nonan-2-yl)phenyl]ethyl]-3,4,6,7,9,9a-hexahydro-1H-pyrazino[1,2-a]pyrazin-2-yl]quinoline-8-carbonitrile], in that order: 98 nM and 29 nM.
For `C[C@@H]1CN(c2cccc(CCN3CCN4[C@@H](C3)CN(c3ccc(C#N)c5ncccc35)C[C@H]4C)n2)CCN1` [Example 58, 5-[(4R,9aS)-4-methyl-8-[2-[6-[(3R)-3-methylpiperazin-1-yl]-2-pyridyl]ethyl]-3,4,6,7,9,9a-hexahydro-JH-pyrazino[1,2-a]pyrazin-2-yl]quinoline-8-carbonitrile], in that order: 51 nM and 40 nM.
For `C[C@@H]1CN(c2ccc(C#N)c3ncccc23)C[C@@H]2CN(Cc3cccc4c3CNCC4)CCN21` [Example 71, 5-[(4R,9aS)-4-methyl-8-(1,2,3,4-tetrahydroisoquinolin-8-ylmethyl)-3,4,6,7,9,9a-hexahydro-1H-pyrazino[1,2-a]pyrazin-2-yl]quinoline-8-carbonitrile], the IC50 turned out to be 79 nM on human TLR9 and 21 nM against human TLR8.
On to `CO[C@@H]1CN(c2nccc(N3CCN4[C@@H](C3)CN(c3ccc(C#N)c5ncccc35)C[C@H]4C)n2)C[C@H]1N` [Example 36, 5-[(4R,9aR)-8-[2-[(3R,4R)-3-amino-4-methoxy-pyrrolidin-1-yl]pyrimidin-4-yl]-4-methyl-3,4,6,7,9,9a-hexahydro-1H-pyrazino[1,2-a]pyrazin-2-yl]quinoline-8-carbonitrile], for which the values for the IC50 on human TLR9 and against human TLR8 were 68 nM and 15 nM, respectively.
For `C[C@@H]1CN(c2ccc(C#N)c3ncccc23)C[C@@H]2CN(Cc3ccc(N4CCNCC4)nc3)CCN21` [Example 8, 5-[(4R,9aS)-4-methyl-8-[(6-piperazin-1-yl-3-pyridyl)methyl]-3,4,6,7,9,9a-hexahydro-1H-pyrazino[1,2-a]pyrazin-2-yl]quinoline-8-carbonitrile], in that order: 41 nM and 52 nM.
For `C[C@@H]1CN(c2ccc(C#N)c3ncccc23)C[C@@H]2CN(CCc3ccc(N4CCN[C@@H](C)C4)cn3)CCN21` [Example 20, 5-[(4R,9aS)-4-methyl-8-[2-[5-[(3S)-3-methylpiperazin-1-yl]-2-pyridyl]ethyl]-3,4,6,7,9,9a-hexahydro-1H-pyrazino[1,2-a]pyrazin-2-yl]quinoline-8-carbonitrile], in that order: 56 nM and 51 nM.
Consider `Cc1cc(N2CCNCC2)ncc1N1CCN2CCN(c3ccc(C#N)c4ncccc34)CC2C1` (centres unmarked) [Example 38, 5-[2-(4-methyl-6-piperazin-1-yl-3-pyridyl)-3,4,6,7,9,9a-hexahydro-1H-pyrazino[1,2-a]pyrazin-8-yl]quinoline-8-carbonitrile], for which the IC50 turned out to be 93 nM at human TLR9 and 8 nM on human TLR8.
For `[2H]c1ccc2c(N3C[C@@H]4CN(Cc5ccc(N6CCNCC6)nc5)CCN4[C@H](C)C3)ccc(C#N)c2n1` [Example 78, 5-[(4R,9aS)-4-methyl-8-[(6-piperazin-1-yl-3-pyridyl)methyl]-3,4,6,7,9,9a-hexahydro-1H-pyrazino[1,2-a]pyrazin-2-yl]-2-deuterio-quinoline-8-carbonitrile], in that order: below 32 nM and 17 nM.
As for `C[C@H]1CN(c2ccc(C#N)c3ncccc23)C[C@@H]2CN(c3ccc([C@@H]4CNCCO4)cc3)CCN21` [Example 125, 5-[(4S,9aS)-4-methyl-8-[4-[(2R)-morpholin-2-yl]phenyl]-3,4,6,7,9,9a-hexahydro-1H-pyrazino[1,2-a]pyrazin-2-yl]quinoline-8-carbonitrile], the IC50 at human TLR9 was determined as 120 nM; against human TLR8 it was 7 nM.
For `[2H]c1ccc2c(N3C[C@@H]4CN(Cc5ccc(N6CC(C)(N)C6)nc5C)CCN4[C@H](C)C3)ccc(C#N)c2n1` [Example 79, 5-[(4R,9aS)-8-[[6-(3-amino-3-methyl-azetidin-1-yl)-2-methyl-3-pyridyl]methyl]-4-methyl-3,4,6,7,9,9a-hexahydro-1H-pyrazino[1,2-a]pyrazin-2-yl]-2-deuterio-quinoline-8-carbonitrile], in that order: 46 nM and 6 nM.
For `Cc1cc(N2CCOC[C@H](N)C2)ncc1N1CCN2CCN(c3ccc(C#N)c4ncccc34)CC2C1` (stereo partly drawn) [Example 46, 5-[2-[6-[(6R)-6-amino-1,4-oxazepan-4-yl]-4-methyl-3-pyridyl]-3,4,6,7,9,9a-hexahydro-1H-pyrazino[1,2-a]pyrazin-8-yl]quinoline-8-carbonitrile], in that order: 78 nM and 13 nM.
For `[2H]c1ccc2c(N3C[C@@H]4CN(c5ccc(CCN6C[C@H](OC)[C@@H](N)C6)cn5)CCN4[C@H](C)C3)ccc(C#N)c2n1` [Example 109, 5-[(4R,9aR)-8-[5-[2-[(3S,4S)-3-amino-4-methoxy-pyrrolidin-1-yl]ethyl]-2-pyridyl]-4-methyl-3,4,6,7,9,9a-hexahydro-1H-pyrazino[1,2-a]pyrazin-2-yl]-2-deuterio-quinoline-8-carbonitrile], in that order: 111 nM and 4 nM.
Consider `CO[C@@H]1CN(c2ccc(CCN3CCN4[C@@H](C3)CN(c3ccc(C#N)c5ncccc35)C[C@H]4C)nc2)C[C@H]1N` [Example 13, 5-[(4R,9aS)-8-[2-[5-[(3R,4R)-3-amino-4-methoxy-pyrrolidin-1-yl]-2-pyridyl]ethyl]-4-methyl-3,4,6,7,9,9a-hexahydro-1H-pyrazino[1,2-a]pyrazin-2-yl]quinoline-8-carbonitrile], for which the IC50 at human TLR9 worked out at 40 nM; against human TLR8 it was 9 nM.
For `C[C@@H]1CN(c2ccc(C#N)c3ncccc23)C[C@@H]2CN(Cc3ccc4c(c3)CCNC4)CCN21` [Example 10, 5-[(4R,9aS)-4-methyl-8-(1,2,3,4-tetrahydroisoquinolin-6-ylmethyl)-3,4,6,7,9,9a-hexahydro-1H-pyrazino[1,2-a]pyrazin-2-yl]quinoline-8-carbonitrile], in that order: 43 nM and 12 nM.
As to `C[C@@H]1CN(c2ccc(C#N)c3ncccc23)C[C@@H]2CN(CCc3ccc(N4C[C@H]5NCCO[C@@H]5C4)nc3)CCN21` [Example 124, 5-[(4R,9aS)-8-[2-[6-[(4aR,7aR)-3,4,4a,5,7,7a-hexahydro-2H-pyrrolo[3,4-b][1,4]oxazin-6-yl]-3-pyridyl]ethyl]-4-methyl-3,4,6,7,9,9a-hexahydro-1H-pyrazino[1,2-a]pyrazin-2-yl]quinoline-8-carbonitrile], the results for the IC50 at human TLR9 and at human TLR8 were 55 nM and 51 nM, respectively.
